Test results as given in publication PMC11370452 (bioRxiv, 2024).

Columns and labels:
[1] = biological target: GABABR (Rattus norvegicus, UniProt O88871+Q9Z0U4); type: cell-based; settings: with Gαi bystander BRET sensor expression versus control
[2] = tested on: MOR; settings: database annotation; cited from earlier work

GABABR, sequence (Q9Z0U4 17-960 limits assumed): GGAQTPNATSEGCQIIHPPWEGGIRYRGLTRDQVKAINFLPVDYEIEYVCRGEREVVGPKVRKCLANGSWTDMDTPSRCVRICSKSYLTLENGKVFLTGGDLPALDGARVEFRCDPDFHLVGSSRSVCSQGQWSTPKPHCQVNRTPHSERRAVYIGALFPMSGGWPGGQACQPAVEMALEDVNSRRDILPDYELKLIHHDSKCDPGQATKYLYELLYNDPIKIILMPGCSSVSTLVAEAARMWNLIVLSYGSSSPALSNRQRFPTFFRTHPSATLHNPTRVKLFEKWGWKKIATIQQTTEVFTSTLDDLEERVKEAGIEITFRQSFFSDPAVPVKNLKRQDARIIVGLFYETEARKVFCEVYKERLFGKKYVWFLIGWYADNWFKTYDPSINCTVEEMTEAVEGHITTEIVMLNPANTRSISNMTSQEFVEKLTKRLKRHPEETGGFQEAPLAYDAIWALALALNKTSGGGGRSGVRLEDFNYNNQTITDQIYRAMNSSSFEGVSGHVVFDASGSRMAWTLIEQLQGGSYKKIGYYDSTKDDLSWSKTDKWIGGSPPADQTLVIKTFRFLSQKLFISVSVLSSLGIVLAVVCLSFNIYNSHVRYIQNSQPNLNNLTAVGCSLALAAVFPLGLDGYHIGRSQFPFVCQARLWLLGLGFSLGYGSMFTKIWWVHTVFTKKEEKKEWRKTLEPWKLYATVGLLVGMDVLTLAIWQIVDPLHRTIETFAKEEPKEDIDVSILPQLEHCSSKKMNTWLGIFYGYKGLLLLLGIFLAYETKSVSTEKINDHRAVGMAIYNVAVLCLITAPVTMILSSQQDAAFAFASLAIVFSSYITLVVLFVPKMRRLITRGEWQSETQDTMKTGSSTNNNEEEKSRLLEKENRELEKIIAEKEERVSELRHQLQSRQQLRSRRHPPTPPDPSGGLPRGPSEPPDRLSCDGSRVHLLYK
GABABR, sequence (O88871 41-940 partner): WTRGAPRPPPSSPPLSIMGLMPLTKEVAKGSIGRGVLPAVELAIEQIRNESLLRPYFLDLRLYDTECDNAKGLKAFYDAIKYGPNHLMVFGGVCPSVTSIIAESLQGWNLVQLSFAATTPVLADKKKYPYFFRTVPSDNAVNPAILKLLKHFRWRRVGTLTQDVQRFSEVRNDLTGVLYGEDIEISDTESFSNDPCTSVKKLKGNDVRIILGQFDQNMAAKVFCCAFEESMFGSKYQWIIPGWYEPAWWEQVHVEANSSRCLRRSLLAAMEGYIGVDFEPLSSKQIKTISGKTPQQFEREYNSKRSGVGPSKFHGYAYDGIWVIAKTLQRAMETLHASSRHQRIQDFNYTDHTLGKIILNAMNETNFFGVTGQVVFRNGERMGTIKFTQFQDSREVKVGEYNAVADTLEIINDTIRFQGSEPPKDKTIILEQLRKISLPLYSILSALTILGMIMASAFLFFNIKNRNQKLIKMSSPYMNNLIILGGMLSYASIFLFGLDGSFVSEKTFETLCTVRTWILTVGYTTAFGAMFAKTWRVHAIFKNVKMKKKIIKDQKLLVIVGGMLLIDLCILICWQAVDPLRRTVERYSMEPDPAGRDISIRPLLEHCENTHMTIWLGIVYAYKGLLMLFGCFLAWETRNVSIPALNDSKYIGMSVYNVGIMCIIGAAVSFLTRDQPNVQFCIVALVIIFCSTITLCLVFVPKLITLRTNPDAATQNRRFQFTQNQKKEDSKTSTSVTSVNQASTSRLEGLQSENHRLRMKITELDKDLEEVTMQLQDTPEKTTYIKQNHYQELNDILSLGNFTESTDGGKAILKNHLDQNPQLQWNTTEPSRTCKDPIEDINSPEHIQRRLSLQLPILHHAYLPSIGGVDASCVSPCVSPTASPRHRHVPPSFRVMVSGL

With `NCCCC(=O)O` [GABA] the “increase in the IC50 of inhibition by GABA” value [1] was ~ 4 fold.

For Leu-Enkephalin, the “Agonist efficacy, MOR: IUPHAR annotation” value [2] is given as “partial agonist”.
